{"source": "patent US4500531A", "about": "“Therapeutical use of (1-cinnamoyl or 1-phenethylcarbonyl) piperazine derivatives” (priority 1982, dated 1985)", "key": {"[1]": {"settings": "cited from earlier work; for vasodilatory activity: earlier patents and literature; for pharmacological activity as previously considered: up to the present, in the pharmacological field, earlier literature"}, "[2]": {"assay": "pharmacological study: stimulation or protection of cerebral functions", "assay_type": "in vivo", "settings": "thorough pharmacological study", "method": "The stimulating or protecting activities have been shown particularly by the test of the mnesic retention of exploratory activity carried out in accordance with the following method: in an ACTIMETRE APELAB apparatus (BOISSIER and SIMON, Arch. Inter. Pharmacodyn. 158, 212, (1965), the exploratory activity of SWISS-WEBSTER male mice was measured for 5 minutes, then the animals were given an intraperitoneal injection or oral administration of the derivatives of formula (I), the salts thereof or of physiological serum. After a week, the exploratory activity of the treated animals is again measured and the effect of the mnesic retention is measured by an habituation, i.e., by a statistically significant reduction (t of STUDENT in paired groups) of the exploratory activity."}, "[3]": {"assay": "approximate acute toxicity (method of MILLER and TAINTER)", "settings": "in vivo; for mortality: read-out: lethality", "method": "The approximate acute toxicity is determined according to the method described by MILLER and TAINTER in Proc. Soc. Exp. Biol. Med. 57, 261, (1944)."}, "[4]": {"assay": "test of the mnesic retention of exploratory activity (habituation)", "assay_type": "in vivo, SWISS-WEBSTER male mice", "settings": "Mus musculus, ip, 168 h, read-out: % of the diminution of the exploratory activity; for inhibition in vivo at 10 mg/kg: dose 10 mg/kg i.p."}, "[5]": {"settings": "dose 3 mg/kg i.p., retest after one week, mice"}}, "note": "Counter-ions that a name gives are not always drawn. Like-named read-outs stand apart in the source and are kept apart here.", "data": [{"compound": "CCOC(=O)CN1CCN(C(=O)/C=C/c2cc(OC)c(OC)c(OC)c2)CC1", "values": [{"measurement": "vasodilatory activity", "setting": "[1]", "result": "peripheral and coronary vasodilators"}]}, {"compound": "COc1cc(/C=C/C(=O)N2CCN(CC(=O)N3CCCC3)CC2)cc(OC)c1OC", "values": [{"measurement": "vasodilatory activity", "setting": "[1]", "result": "peripheral and coronary vasodilators"}]}, {"compound": "COc1cc(/C=C/C(=O)N2CCN(CC(=O)O)CC2)cc(OC)c1OC", "note": "[Code Number 71, trans 1-(3,4,5-trimethoxy)cinnamoyl 4-hydroxycarbonylmethyl piperazine, hydrochloride]", "values": [{"measurement": "pharmacological activity as previously considered", "setting": "[1]; listed as Ia, hydrochloride", "result": "inactive"}, {"measurement": "activity in the stimulation or protection of cerebral functions", "setting": "[2]", "result": "important activities in the stimulation or protection of cerebral functions"}]}, {"compound": "COc1cc(/C=C\\C(=O)N2CCN(CC(=O)N3CCCC3)CC2)cc(OC)c1OC", "note": "[Code Number 72, cis 1-(3,4,5-trimethoxy)cinnamoyl 4-pyrrolidinocarbonylmethyl)piperazine, oxalate]", "values": [{"measurement": "pharmacological activity as previously considered", "setting": "[1]; listed as Ib", "result": "inactive"}, {"measurement": "activity in the stimulation or protection of cerebral functions", "setting": "[2]", "result": "important activities in the stimulation or protection of cerebral functions"}]}, {"compound": "COc1cc(/C=C/C(=O)N2CCN(CC(=O)NC(C)C)CC2)cc(OC)c1OC", "note": "[compound 65]", "values": [{"measurement": "LD50", "setting": "[3]; iv", "result": 475, "unit": "mg/kg"}, {"measurement": "inhibition in vivo at 10 mg/kg", "setting": "[4]; retest after one week, mice", "result": 17.9, "unit": "%"}]}, {"compound": "COc1cc(/C=C/C(=O)N2CCN(CC(=O)N3CCCCC3)CC2)cc(OC)c1OC", "note": "[compound 66]", "values": [{"measurement": "LD50", "setting": "[3]; po", "result": 2250, "unit": "mg/kg"}, {"measurement": "inhibition in vivo at 3 mg/kg", "setting": "[4]; [5]", "result": 35.2, "unit": "%"}]}, {"compound": "COc1cc(/C=C/C(=O)N2CCN(CC(=O)N3CCCCCCC3)CC2)cc(OC)c1OC", "note": "[compound 67]", "values": [{"measurement": "LD50", "setting": "[3]; iv", "result": 225, "unit": "mg/kg"}, {"measurement": "inhibition in vivo at 3 mg/kg", "setting": "[4]; [5]", "result": 26.4, "unit": "%"}]}, {"compound": "COc1ccc(CCN(C)C(=O)CN2CCN(C(=O)/C=C/c3cc(OC)c(OC)c(OC)c3)CC2)cc1OC", "note": "[compound 68]", "values": [{"measurement": "LD50", "setting": "[3]; iv", "result": 200, "unit": "mg/kg"}, {"measurement": "inhibition in vivo at 10 mg/kg", "setting": "[4]; retest after one week, mice", "result": 15.8, "unit": "%"}]}, {"compound": "COc1cc(/C=C/C(=O)N2CCN(CC(=O)NC(C)C)CC2)cc(OC)c1O", "note": "[compound 69]", "values": [{"measurement": "LD50", "setting": "[3]; po", "result": 2000, "unit": "mg/kg"}, {"measurement": "mortality", "setting": "[3]; po, 2000 mg/kg p.o.", "result": 0, "unit": "%"}, {"measurement": "inhibition in vivo at 3 mg/kg", "setting": "[4]; [5]", "result": 23.8, "unit": "%"}]}, {"compound": "COc1cc(CCC(=O)N2CCN(CC(=O)NC(C)C)CC2)cc(OC)c1OC", "note": "[compound 70]", "values": [{"measurement": "LD50", "setting": "[3]; po", "result": 2000, "unit": "mg/kg"}, {"measurement": "mortality", "setting": "[3]; po, 2000 mg/kg p.o.", "result": 0, "unit": "%"}, {"measurement": "inhibition in vivo at 30 mg/kg", "setting": "[4]; dose 30 mg/kg i.p., retest after one week, mice", "result": 16.2, "unit": "%"}]}, {"compound": "COc1cc(/C=C/C(=O)N2CCN(CC(=O)O)CC2)cc(OC)c1OC", "note": "[compound 71]", "values": [{"measurement": "LD50", "setting": "[3]; po", "result": 1000, "unit": "mg/kg"}, {"measurement": "mortality", "setting": "[3]; po, 1000 mg/kg p.o.", "result": 0, "unit": "%"}, {"measurement": "inhibition in vivo at 1 mg/kg", "setting": "[4]; dose 1 mg/kg i.p., retest after one week, mice", "result": 31.9, "unit": "%"}]}, {"compound": "COc1cc(/C=C\\C(=O)N2CCN(CC(=O)N3CCCC3)CC2)cc(OC)c1OC", "note": "[compound 72]", "values": [{"measurement": "inhibition in vivo at 3 mg/kg", "setting": "[4]", "result": 21, "unit": "%"}]}, {"compound": "COc1cc(/C=C/C(=O)N2CCN(CC(=O)O)CC2)cc(OC)c1OC", "note": "[drawing 11]", "values": [{"measurement": "pharmacological activity as previously considered", "setting": "[1]", "result": "non-active"}]}, {"compound": "COc1cc(/C=C\\C(=O)N2CCN(CC(=O)N3CCCC3)CC2)cc(OC)c1OC", "note": "[drawing 13]", "values": [{"measurement": "pharmacological activity as previously considered", "setting": "[1]", "result": "non-active"}]}, {"compound": "COc1cc(CCC(=O)N2CCN(CC(=O)NC(C)C)CC2)cc(OC)c1OC", "note": "[drawing 15]", "values": [{"measurement": "vasodilatory activity", "setting": "[1]", "result": "peripheral and coronary vasodilators"}]}, {"compound": "COc1cc(/C=C/C(=O)N2CCN(CC(=O)NC(C)C)CC2)cc(OC)c1O", "note": "[drawing 16]", "values": [{"measurement": "vasodilatory activity", "setting": "[1]", "result": "coronary vasodilator"}]}]}
